{"source": "patent US20070248488A1", "about": "“METHOD AND APPARATUS FOR REDUCING MICROORGANISMS IN WATER” (VORTEX CORPORATION, priority 2006, published 2007)", "key": {"[1]": {"system": "heterotrophic plate count", "conditions": "reduced from 960 cfu/mL; raw water source for drinking water plant; cited from earlier work"}, "[2]": {"system": "Naegleria fowleri (ATCC #30462) cysts", "experiment": "Test for destruction of Naegleria fowleri in de-chlorinated tap water (MPN viability)", "assay_type": "cell-based", "conditions": "Initial titer 2.42 × 10^3 cysts/mL, 2 L/minute, UV approx. 48 mJ/cm^2, ozone about 0.08 mg/L"}, "MS-2 coliphage": {"system": "MS-2 coliphage", "experiment": "Ozone and UV disinfection of MS-2 phage in dechlorinated tap water", "assay_type": "cell-based", "conditions": "Ozone Level (OR) 400 mV, exposure time 5 min; UV Dose 0 mJ/cm^2; room temperature, pH 7.6; MS-2 3.3×10^7 pfu/mL", "protocol": "Propagation and assay of MS-2 coliphage was performed in accordance with Thurston-Enriquez et al. (2003a). Expected UV inactivation was derived from the work of Thurston-Enriquez et al. (2003a).\nOzone was generated by a corona discharge generator and injected into 4 L of dechlorinated tap water at room temperature and pH 7.6. The water was raised and maintained to an Oxidation Reduction Potential (OR) of 400 mV. On addition of the MS-2 to a concentration of 3.3×10^7 pfu/mL, the OR was maintained at 400 mV for five minutes. At the five minute mark, samples were drawn for MS-2 assay and the water was pumped through a UV (low pressure, high output UV lamp 14) at two gallons per minute. The UV dose was calibrated and known to be 12 mJ/cm^2. Following UV treatment, samples were taken for MS-2 assay. A duplicate trial was performed."}, "[3]": {"system": "Adenovirus 2 (ATCC# VR-846)", "experiment": "Adenovirus inactivation in de-chlorinated tap water (TCID50 on PLC cells)", "assay_type": "cell-based", "conditions": "Initial titer 1.33 × 10^6 TCID50/ml; 2 L/minute; UV approx. 48 mJ/cm^2; ozone about 0.08 mg/L", "excerpt": "It was capable of processing 2 liters per minute of water. To study the effects of UV light only, the ozone generated by the apparatus was diverted away and not injected into the water stream. The UV dose (mJ/cm^2) was previously calibrated and found to be approximately 48 mJ/cm^2 as determined by MS-2 coliphagae biodosimetry. To study the effects of ozone only, the UW lamp was shrouded with a stainless steel sleeve to prevent any water from being exposed to the UW light from lamp 14. The ozone dose was measured in all cases to be about 0.08 mg/L. To study the combination of UV light with the ozone, the ozone was injected at the base of vessel 22 via a venturi as previously described.\nLog Reductions in microorganisms were calculated as follows: Log 10 Reduction=Log10[Final titer]−Log10[Initial titer]\nAdenovirus 2 (ATCC# VR-846) was obtained from the American Type Culture Collection. It was maintained on PLC (Primary Liver Carcinoma, ATCC# CRL-8024) cell line monolayers with MEM (Minimal essential Medium modified with Earle's salts) containing 2$ FBS (Fetal Bovine Serum) at an incubation temperature of 35° C. with 5% CO2. Viruses were purified by centrifugation (7756×g) to remove cell debris followed by polyethylene glycol (9% PEG, 0.5 mol/L NaCl) precipitation. […]"}, "adenoviruses": {"system": "adenoviruses", "conditions": "Ct value of 0.6 mg/L min, 5° C.; cited from earlier work"}}, "note": "Where “and” joins values, the source holds several entries; their conditions need not be identical. Identical values can stand only once."}
{"compound": "O=[O+][O-]", "note": "[Ozone, ozone]", "values": [{"measurement": "heterotrophic plate count after ozone disinfection stage", "setting": "[1]", "result": 680, "unit": "cfu/mL"}, {"measurement": "Final Titer", "setting": "[2]", "result": 473, "unit": "mL⁻¹"}, {"measurement": "Log10 Reduction", "setting": "[2]", "result": ".071"}, {"measurement": "Log10 Reduction", "setting": "[2]; listed as ozone", "result": 0.71}, {"measurement": "log Inactivation", "setting": "MS-2 coliphage", "result": "1 log and 1.06 log and 1.00 log"}, {"measurement": "Final Titer", "setting": "[3]", "result": "2.08 × 10^5 TCID50/ml"}, {"measurement": "Log10 Reduction", "setting": "[3]", "result": 0.81}, {"measurement": "inactivation of adenoviruses", "setting": "adenoviruses", "result": "more than 4 logs"}]}
